Results reported in PMC11790763, “A Peptide Motif Covering Splice Site B in Neuroligin-1 Binds to Aβ and Acts as a Neprilysin Inhibitor” (Molecular Neurobiology, 2024).
Bridges are numbered along the chain shown (N, C = ends). Roman numbers before positions name the chains, in order. Where no end group is shown, it is not given here.

Columns and labels:
rats = conditions: cited from earlier work
[1] = cited from earlier work
Aβ1-40 = biological target: T1, Aβ1-40 (Homo sapiens, UniProt P05067); test: Competitive ELISA, binding to biotinylated Aβ1-40
T1 construct: biotinylated Aβ1-40, at final concentration 400 nM; purchased Bachem AG (Bubendorf, Switzerland) or Schafer-N; host or cells: synthetic peptide
T1 sequence (P05067 672-711): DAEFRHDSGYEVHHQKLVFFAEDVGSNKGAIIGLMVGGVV
Description: NL1 and NL1-derived peptide binding to Aβ was measured by competitive ELISA using the shorter Aβ1-40 peptide with a slower polymerization constant, optimized for this binding assay. Recombinant NL1 (3.125 nM) was immobilized on a poly-sorb 96-well plate (NUNC, Roskilde, Denmark) using sodium bicarbonate buffer (pH 9.6), and left overnight at 4 °C, followed by washing with PBST buffer (PBS supplemented with 0.1% [vol/vol] Tween-20, pH 7.4). In separate tubes, biotinylated Aβ1-40, at final concentration 400 nM, was premixed with serially diluted NL1 or NL1-derived peptides for 30 min. A reversed version of Aβ (Aβ40-1) was used as the respective negative control (Supplementary Fig. 1). After preincubation, the samples were centrifuged at 20,000 × g for 10 min at 4 °C and 100 μl of the mixtures were transferred in triplicates onto the precoated ELISA plate. Plates were incubated at room temperature for 4 h, followed by washing and incubation with streptavidin-HRP conjugate (1:1000, 1 h; Dako, Glostrup, Denmark). The signal was developed with TMB ONE (KEM-EN-TEC, Denmark), and the reaction was terminated with 0.2 M H2SO4. Absorbance was measured at 450 nm on a Wallac VICTOR2 1420 Multilabel Counter (PerkinElmer, Hvidovre, Denmark). KD values were derived by sigmoidal dose–response (variable slope) fit of NL1 and neurolide dose–response curves after log transformation according to GraphPad Prism (version 6, GraphPad, San Diego, CA, USA). Obtained inhibitory concentration IC50 value was interpreted as KD value.

5XFAD and WT mice = test: Aβ plaque load, Thioflavin-S staining of brain sections; type: in vivo, mouse
Description: At the age of 2 months, 5XFAD and WT mice were injected subcutaneously (s.c.) with either neurolide (10 mg/kg) or saline in a volume of 0.1 ml/10 g of body weight three times a week for 10 weeks.
After 10 weeks of treatment, mice were transcardially perfused with 0.1 M PBS, pH 7.4 under deep pentobarbital anesthesia (intraperitoneal, 200 mg/kg). The left brain hemispheres were postfixed in 4% paraformaldehyde in PBS. The brain hemispheres were further dehydrated in ethanol, cleared, embedded in paraffin blocks and serially sectioned into 7-μm coronal sections through the entire brain hemisphere. Parallel series of sections were collected, consisting of 12 equally spaced Sects. (400 μm apart). One of the series was stained with 1% Thioflavin-S for histological evaluation of Aβ plaque formation. Another series was used for immunohistochemical staining of GFAP + astrocytes as described previously. Extracellular Aβ plaque load was assessed in cortex, hippocampus, striatum, thalamus, and hypothalamus. GFAP-positive astrocytes were assessed in motor cortex. Serial super images of whole-brain sections were acquired using an Olympus BX-51 microscope equipped with the Visiopharm Integrator System software (Visiopharm) and analyzed using the ImageJ software package. The pictures were converted to 8-bit images, and the area of interest was marked. The intensity threshold was fixed to fit Thioflavin-S or GFAP signal. The area, covered by Thioflavin-S or GFAP staining, was measured in selected regions.

Aβ1-42 = conditions: NL1 at 1 nM; cited from earlier work
From the text: This higher accumulation of Aβ plaques promoted by the neurolide treatment prompted us to look for an explanation for this phenome ...

[2] = 5XFAD mice, 10 mg/kg s.c. three times a week for 10 weeks, neurolide n = 11 versus saline n = 13

Molecule | spatial memory deficits induced by NMDAR-antagonist MK801 (rats) | spatial learning, social behavior, and locomotor activity (rats; healthy rats) | passage of the blood–brain-barrier [1] | plasma/CSF ratio ([1]; systemically given) | levels in CSF ([1]; within 30 min after single s.c. administration) | binding affinity to Aβ, times lower than that of the parent sNL1 domain (Aβ1-40) | average size of thioflavin-S-positive plaques in the cortex (5XFAD and WT mice; [2]) | fractional area of thioflavin-S-positive plaques in the cortex (5XFAD and WT mice; [2]) | plaque area or plaque size in other brain regions (5XFAD and WT mice; 5XFAD mice, hippocampus, striatum, thalamus, hypothalamus, versus saline) | plaques in WT brains (5XFAD and WT mice; WT mice, 10 mg/kg s.c. three times a week for 10 weeks) | effect on Aβ aggregation at low concentration (Aβ1-42)
I: SEGNRWSNSTKGLFQRAKK-NH2 / II: SEGNRWSNSTKGLFQRAK / III: SEGNRWSNSTKGLFQRA / IV: SEGNRWSNSTKGLFQRA (amide I:18-IV:C, I:19-II:C, II:18-III:C; C-terminus assumed) [neurolide] | counteracted spatial memory deficits | had no effect | in the range of nanograms | approximately 20 | nanogram/low microgram levels | approximately 2 times | significant increase | significant increase | no significant difference | no plaques | –
NL1: recombinant rat neuroligin-1, soluble ectodomain (R&D systems) (protein, UniProt Q62765 46-697, looked up, extracellular domain) extracellular domain: QKLDDVDPLVTTNFGKIRGIKKELNNEILGPVIQFLGVPYAAPPTGEHRFQPPEPPSPWSDIRNATQFAPVCPQNIIDGRLPEVMLPVWFTNNLDVVSSYVQDQSEDCLYLNIYVPTEDVKRISKECARKPGKKICRKGDIRDSGGPKPVMVYIHGGSYMEGTGNLYDGSVLASYGNVIVITVNYRLGVLGFLSTGDQAAKGNYGLLDLIQALRWTSENIGFFGGDPLRITVFGSGAGGSCVNLLTLSHYSEGNRWSNSTKGLFQRAIAQSGTALSSWAVSFQPAKYARILATKVGCNVSDTVELVECLQKKPYKELVDQDVQPARYHIAFGPVIDGDVIPDDPQILMEQGEFLNYDIMLGVNQGEGLKFVENIVDSDDGVSASDFDFAVSNFVDNLYGYPEGKDVLRETIKFMYTDWADRHNPETRRKTLLALFTDHQWVAPAVATADLHSNFGSPTYFYAFYHHCQTDQVPAWADAAHGDEVPYVLGIPMIGPTELFPCNFSKNDVMLSAVVMTYWTNFAKTGDPNQPVPQDTKFIHTKPNRFEEVAWTRYSQKDQLYLHIGLKPRVKEHYRANKVNLWLELVPHLHNLNDISQYTSTTTKVPSTDITLRPTRKNSTPVTSAFPTAKQDDPKQQPSPFSVDQRDYSTELS | – | – | – | – | – | – | – | – | – | – | accelerated the aggregation
